{
  "source": "patent US7585644B2",
  "about": "“Mycopolasma detecting methods and materials” (priority 2003, dated 2009)",
  "key": {"[1]": {"tested_on": "luciferase enzyme/reaction", "experiment": "Effect of detergents and substrate on light output of the luciferase reaction", "format": "biochemical", "from_the_text": "(§1) The aim of the following experiments was to determine the concentrations of Triton-X100 in the Hepes-EDTA buffer on the ratios seen with mycoplasma contaminated K562 cell cultures. Two organisms were investigated, M. hyorhinis and M. orale.\n(§2) However, it is still possible to detect positive activity with concentrations as high as 20% (v/v).\n(§3) The concentrations of these detergents can be taken up to 10% without loss of sensitivity of mycoplasmal detection."}, "luciferase": {"biological_target": "luciferase (Photinus pyralis, UniProt P08659)", "sequence (P08659 whole entry)": "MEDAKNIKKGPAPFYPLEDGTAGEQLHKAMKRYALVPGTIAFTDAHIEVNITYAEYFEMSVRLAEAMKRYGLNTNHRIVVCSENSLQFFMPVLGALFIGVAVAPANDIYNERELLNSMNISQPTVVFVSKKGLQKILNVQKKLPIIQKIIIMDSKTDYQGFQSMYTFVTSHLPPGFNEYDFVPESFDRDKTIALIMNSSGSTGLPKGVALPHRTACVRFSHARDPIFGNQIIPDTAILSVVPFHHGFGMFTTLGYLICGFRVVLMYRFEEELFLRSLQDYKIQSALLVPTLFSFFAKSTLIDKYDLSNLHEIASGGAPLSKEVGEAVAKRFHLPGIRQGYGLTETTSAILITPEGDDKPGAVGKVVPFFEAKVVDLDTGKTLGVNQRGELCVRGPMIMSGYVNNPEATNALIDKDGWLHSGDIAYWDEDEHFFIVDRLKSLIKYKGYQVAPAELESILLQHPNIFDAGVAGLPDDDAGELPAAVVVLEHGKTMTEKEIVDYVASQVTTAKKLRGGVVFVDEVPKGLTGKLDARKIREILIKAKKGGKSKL", "settings": "cited from earlier work"}, "[2]": {"tested_on": "M. pneumoniae, M. hominis, M. fermentans, M. genitalium and U. urealyticum", "settings": "variable responses between species; cited from earlier work"}, "[3]": {"tested_on": "M. hyorhinis and M. orale", "experiment": "Effect of detergent concentration on detection of mycoplasma enzyme activities", "format": "cell-based", "from_the_text": "as §1, §2\nHowever, mycoplasma can be lysed with concentrations of Triton X-100 at around 1-2%.\nas §3"}, "[4]": {"tested_on": "E. coli strain JM109 cells", "experiment": "Effect of Triton-X100 on carbamate or acetate kinase activity from bacterial cells", "format": "cell-based"}},
  "data": [
    {"compound": "CC(=O)OP(=O)(O)O", "note": "[Acetyl phosphate]", "values": [
      {"measurement": "concentration above which light output is reduced", "setting": "[1]; assay still performs", "value": "above 10"}
    ]},
    {"compound": "Nc1ncnc2c1ncn2[C@H]1C[C@H](O)[C@@H](COP(=O)(O)OP(=O)(O)OP(=O)(O)O)O1", "note": "[deoxy-ATP]", "values": [
      {"measurement": "light produced relative to the light generated by ATP", "setting": "luciferase", "value": "less than 2%"}
    ]},
    {"compound": "CO/N=C1\\CN(c2nc3c(cc2F)c(=O)c(C(=O)O)cn3C2CC2)CC1CN", "note": "(centres unmarked) [gemifloxacin]", "values": [
      {"measurement": "performance against mycoplasma compared with other antibiotics", "setting": "[2]", "value": "performed better than tetracycline"}
    ]},
    {"compound": "Triton-X100", "values": [
      {"measurement": "detergent concentration above which light output drops", "setting": "[1]; K562 cells infected with M. hyorhinis and M. orale, Hepes-EDTA buffer", "value": "4-5%"},
      {"measurement": "concentration that lyses mycoplasma", "setting": "[3]", "value": "1-2%"},
      {"measurement": "highest detergent concentration at which positive activity is still detected", "setting": "[3]; K562 cells infected with M. hyorhinis and M. orale", "value": "20 % (v/v)"},
      {"measurement": "carbamate or acetate kinase activity", "setting": "[4]; Triton-X100 concentrations of the FIG. 10 experiments", "value": "did not result in any detectable carbamate or acetate kinase activity"},
      {"measurement": "ratio B/A", "setting": "[4]; Triton-X100 increased to 1-2%", "value": "did not result in positive ratios above 1"}
    ]}
  ]
}
